Values belong to the molecule of their own block, whether it stands above or below them.
Key:
Assay type in all cases: cell-based
alpha2A receptor = biological target: T1, alpha2A receptor (Homo sapiens, UniProt P08913); test: Receptor Selection and Amplification Technology (RSAT) assay, alpha2A; conditions: for Alpha 2A EC50 / EC50: RSAT, NIH-3T3 cells cotransfected with receptor and Gq/i5, not active = not active at concentrations less than 10 micromolar; for EC50: read-out: Alpha 2A EC50; for Alpha 2A IA (intrinsic activity): ratio of maximal effect of the drug to maximal effect of standard full agonist brimonidine (UK14304)
T1 construct: expressed in transfected cells; host or cells: NIH-3T3
T1 sequence (P08913 1-465): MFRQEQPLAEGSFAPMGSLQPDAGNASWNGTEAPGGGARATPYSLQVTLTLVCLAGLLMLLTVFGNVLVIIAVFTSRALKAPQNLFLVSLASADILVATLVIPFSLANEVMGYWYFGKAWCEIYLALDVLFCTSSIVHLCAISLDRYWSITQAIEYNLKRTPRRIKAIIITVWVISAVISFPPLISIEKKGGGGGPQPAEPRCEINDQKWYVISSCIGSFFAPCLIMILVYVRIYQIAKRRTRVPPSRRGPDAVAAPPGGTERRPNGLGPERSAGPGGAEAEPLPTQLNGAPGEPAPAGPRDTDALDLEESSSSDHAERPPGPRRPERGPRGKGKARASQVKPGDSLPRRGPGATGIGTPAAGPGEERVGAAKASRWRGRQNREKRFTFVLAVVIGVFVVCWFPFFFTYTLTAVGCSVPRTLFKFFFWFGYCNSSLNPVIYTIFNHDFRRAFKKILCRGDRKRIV
Protocol: (§1) Receptor Selection and Amplification Technology (RSAT) Assay
(§2) The RSAT assay measures a receptor-mediated loss of contact inhibition that results in selective proliferation of receptor-containing cells in a mixed population of confluent cells. The increase in cell number is assessed with an appropriate transfected marker gene such as β-galactosidase, the activity of which can be easily measured in a 96-well format. Receptors that activate the G protein, Gq, elicit this response. Alpha2 receptors, which normally couple to Gi, activate the RSAT response when coexpressed with a hybrid Gq protein that has a Gi receptor recognition domain, called Gq/i5.
(§3) NIH-3T3 cells are plated at a density of 2×10^6 cells in 15 cm dishes and maintained in Dulbecco's modified Eagle's medium supplemented with 10% calf serum. One day later, cells are cotransfected by calcium phosphate precipitation with mammalian expression plasmids encoding p-SV-β-galactosidase (5-10 μg), receptor (1-2 μg) and G protein (1-2 μg). 40 μg salmon sperm DNA may also be included in the transfection mixture. Fresh media is added on the following day and 1-2 days later, cells are harvested and frozen in 50 assay aliquots. Cells are thawed and 100 μl added to 100 μl aliquots of various concentrations of drugs in triplicate in 96-well dishes. Incubations continue 72-96 hr at 37° C. After washing with phosphate-buffered saline, β-galactosidase enzyme activity is determined by adding 200 μl of the chromogenic substrate (consisting of 3.5 mM o-nitrophenyl-β-D-galactopyranoside and 0.5% nonidet P-40 in phosphate buffered saline), incubating overnight at 30° C. and measuring optical density at 420 nm. The absorbance is a measure of enzyme activity, which depends on cell number and reflects a receptor-mediated cell proliferation. The efficacy or intrinsic activity is calculated as a ratio of the maximal effect of the drug to the maximal effect of a standard full agonist for each receptor subtype. Brimonidine, also called UK14304, the chemical structure of which is shown below, is used as the standard agonist for the alpha2A, alpha2B and alpha2C receptors. The EC50 is the concentration at which the drug effect is half of its maximal effect.
(§4) EC50 values are nanomolar. NA stands for “not active” at concentrations less than 10 micromolar. IA stands for “intrinsic activity.”

alpha2B receptor = biological target: T2, alpha2B receptor (Homo sapiens, UniProt P18089); test: Receptor Selection and Amplification Technology (RSAT) assay, alpha2B; conditions: for EC50: read-out: Alpha 2B EC50; for Alpha 2B IA (intrinsic activity): ratio of maximal effect of the drug to maximal effect of standard full agonist brimonidine (UK14304)
T2 construct: expressed in transfected cells; host or cells: NIH-3T3
T2 sequence (P18089 1-450): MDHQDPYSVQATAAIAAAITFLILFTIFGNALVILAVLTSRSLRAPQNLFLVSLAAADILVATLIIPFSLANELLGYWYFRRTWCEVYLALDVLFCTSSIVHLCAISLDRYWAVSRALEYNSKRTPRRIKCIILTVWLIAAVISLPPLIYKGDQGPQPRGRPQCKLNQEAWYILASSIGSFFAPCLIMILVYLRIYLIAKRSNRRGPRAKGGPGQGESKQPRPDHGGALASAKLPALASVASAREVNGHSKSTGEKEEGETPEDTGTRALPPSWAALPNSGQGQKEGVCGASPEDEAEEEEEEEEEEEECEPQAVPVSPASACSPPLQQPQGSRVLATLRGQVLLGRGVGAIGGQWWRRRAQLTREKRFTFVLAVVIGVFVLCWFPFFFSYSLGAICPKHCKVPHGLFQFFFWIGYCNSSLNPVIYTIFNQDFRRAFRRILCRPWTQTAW
Protocol: as §1, §2, §3
The results of the RSAT assay with several exemplary compounds of the invention are disclosed in Table 1 above together with the chemical formulas of these exemplary compounds. EC50 values are nanomolar. NA stands for “not active” at concentrations less than 10 micromolar. IA stands for “intrinsic activity.”

alpha2C receptor = biological target: T3, alpha2C receptor (Homo sapiens, UniProt P18825); test: Receptor Selection and Amplification Technology (RSAT) assay, alpha2C; conditions: for Alpha 2C EC50 / EC50: RSAT, NIH-3T3 cells cotransfected with receptor and Gq/i5, not active = not active at concentrations less than 10 micromolar; for EC50: read-out: Alpha 2C EC50; for Alpha 2C IA (intrinsic activity): ratio of maximal effect of the drug to maximal effect of standard full agonist brimonidine (UK14304)
T3 construct: expressed in transfected cells; host or cells: NIH-3T3
T3 sequence (P18825 1-462): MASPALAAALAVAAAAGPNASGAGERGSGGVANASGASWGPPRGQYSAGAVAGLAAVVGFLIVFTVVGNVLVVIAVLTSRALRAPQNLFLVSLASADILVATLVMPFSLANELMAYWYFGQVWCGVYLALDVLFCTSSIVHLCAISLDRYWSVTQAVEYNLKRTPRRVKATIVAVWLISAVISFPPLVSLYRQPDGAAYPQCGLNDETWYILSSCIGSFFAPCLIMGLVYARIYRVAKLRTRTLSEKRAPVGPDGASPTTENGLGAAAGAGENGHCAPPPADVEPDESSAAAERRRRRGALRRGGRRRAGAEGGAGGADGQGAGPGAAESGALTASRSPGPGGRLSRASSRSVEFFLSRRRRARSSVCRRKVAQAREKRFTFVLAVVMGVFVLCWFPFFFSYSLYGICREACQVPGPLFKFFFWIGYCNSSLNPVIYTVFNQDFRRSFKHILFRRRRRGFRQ
Protocol: as §1, §2, §3, §4

[1] = RSAT, NIH-3T3 cells cotransfected with receptor and Gq/i5, not active = not active at concentrations less than 10 micromolar

SMILES: CC1=C(C=O)CCCC1NC(=O)NCCF (stereo not shown)
- Alpha 2A EC50 (alpha2A receptor): not active
- EC50 (alpha2B receptor; [1]): 2580 nM
- Alpha 2B IA (intrinsic activity) (alpha2B receptor): 0.81
- EC50 (alpha2C receptor): 3620 nM
- Alpha 2C IA (intrinsic activity) (alpha2C receptor): 0.32

SMILES: CC1=CC(NC(=O)NCCF)CCC1 (stereo not shown)
- Alpha 2A EC50 (alpha2A receptor): not active
- EC50 (alpha2B receptor; [1]): 225 nM
- Alpha 2B IA (intrinsic activity) (alpha2B receptor): 0.42
- EC50 (alpha2C receptor): 520 nM
- Alpha 2C IA (intrinsic activity) (alpha2C receptor): 0.4

SMILES: COc1ccc2c(c1)CCC2NC(=O)NCCF (stereo not shown)
- Alpha 2A EC50 (alpha2A receptor): not active
- Alpha 2B EC50 (alpha2B receptor; [1]): not active
- EC50 (alpha2C receptor): 1440 nM
- Alpha 2C IA (intrinsic activity) (alpha2C receptor): 0.35

SMILES: O=C(NCCF)NC1CCCCc2ccc(F)cc21 (stereo not shown)
- EC50 (alpha2A receptor): > 2000 nM
- Alpha 2A IA (intrinsic activity) (alpha2A receptor): 0.31
- EC50 (alpha2B receptor; [1]): 913 nM
- Alpha 2B IA (intrinsic activity) (alpha2B receptor): 0.54
- EC50 (alpha2C receptor): 341 nM
- Alpha 2C IA (intrinsic activity) (alpha2C receptor): 0.3

SMILES: CC1Cc2ccccc2C1NC(=O)NCCF (stereo not shown)
- Alpha 2A EC50 (alpha2A receptor): not active
- EC50 (alpha2B receptor; [1]): 26.4 nM
- Alpha 2B IA (intrinsic activity) (alpha2B receptor): 0.85
- Alpha 2C EC50 (alpha2C receptor): not active

SMILES: O=C(NCCF)NCC1CCc2ccccc21 (stereo not shown)
- Alpha 2A EC50 (alpha2A receptor): not active
- EC50 (alpha2B receptor; [1]): 380 nM
- Alpha 2B IA (intrinsic activity) (alpha2B receptor): 0.76
- EC50 (alpha2C receptor): > 2000 nM
- Alpha 2C IA (intrinsic activity) (alpha2C receptor): 0.38

SMILES: Cc1cccc2c1CCCC2NC(=O)NCCF (stereo not shown)
- EC50 (alpha2A receptor): 48 nM
- Alpha 2A IA (intrinsic activity) (alpha2A receptor): 0.41
- EC50 (alpha2B receptor; [1]): 5.6 nM
- Alpha 2B IA (intrinsic activity) (alpha2B receptor): 1.3
- EC50 (alpha2C receptor): 123 nM
- Alpha 2C IA (intrinsic activity) (alpha2C receptor): 1.03

SMILES: O=C(NCCF)NC1CCc2cc(F)ccc21 (stereo not shown)
- Alpha 2A EC50 (alpha2A receptor): not active
- EC50 (alpha2B receptor; [1]): 88 nM
- Alpha 2B IA (intrinsic activity) (alpha2B receptor): 0.59
- EC50 (alpha2C receptor): 543 nM
- Alpha 2C IA (intrinsic activity) (alpha2C receptor): 0.54

SMILES: O=C(NCCF)NC1Cc2cccc(F)c2C1 (stereo not shown)
- Alpha 2A EC50 (alpha2A receptor): not active
- EC50 (alpha2B receptor; [1]): 21 nM
- Alpha 2B IA (intrinsic activity) (alpha2B receptor): 0.68
- EC50 (alpha2C receptor): 182 nM
- Alpha 2C IA (intrinsic activity) (alpha2C receptor): 0.32

SMILES: O=C(NCCF)NC1CCCc2c(F)cccc21 (stereo not shown)
- EC50 (alpha2A receptor): 68.3 nM
- Alpha 2A IA (intrinsic activity) (alpha2A receptor): 0.52
- EC50 (alpha2B receptor; [1]): 8.2 nM
- Alpha 2B IA (intrinsic activity) (alpha2B receptor): 1.03
- EC50 (alpha2C receptor): 107 nM
- Alpha 2C IA (intrinsic activity) (alpha2C receptor): 0.76

Continued by falling EC50 (alpha2B receptor; [1]), values first:

- Alpha 2A EC50 (alpha2A receptor): not active
- EC50 (alpha2B receptor; [1]): 226 nM
- Alpha 2B IA (intrinsic activity) (alpha2B receptor): 0.63
- Alpha 2C EC50 (alpha2C receptor): not active
SMILES: O=C(NCCF)NC1CCc2ccccc2C1 (stereo not shown)

- Alpha 2A EC50 (alpha2A receptor): not active
- EC50 (alpha2B receptor; [1]): 156 nM
- Alpha 2B IA (intrinsic activity) (alpha2B receptor): 0.45
- Alpha 2C EC50 (alpha2C receptor): not active
SMILES: O=C(NCCF)NC1Cc2cccc(Br)c2C1 (stereo not shown)

- Alpha 2A EC50 (alpha2A receptor): not active
- EC50 (alpha2B receptor; [1]): 74 nM
- Alpha 2B IA (intrinsic activity) (alpha2B receptor): 0.9
- EC50 (alpha2C receptor): 453 nM
- Alpha 2C IA (intrinsic activity) (alpha2C receptor): 0.58
SMILES: CC1=CCCCC1NC(=O)NCCF (stereo not shown)

- EC50 (alpha2A receptor): 146 nM
- Alpha 2A IA (intrinsic activity) (alpha2A receptor): 0.41
- EC50 (alpha2B receptor; [1]): 20.3 nM
- Alpha 2B IA (intrinsic activity) (alpha2B receptor): 0.91
- EC50 (alpha2C receptor): 204 nM
- Alpha 2C IA (intrinsic activity) (alpha2C receptor): 0.53
SMILES: O=C(NCCF)NC1CCCc2c(Br)cccc21 (stereo not shown)

- EC50 (alpha2A receptor): 64.6 nM
- Alpha 2A IA (intrinsic activity) (alpha2A receptor): 0.97
- EC50 (alpha2B receptor; [1]): 2.7 nM
- Alpha 2B IA (intrinsic activity) (alpha2B receptor): 1.06
- EC50 (alpha2C receptor): 103 nM
- Alpha 2C IA (intrinsic activity) (alpha2C receptor): 0.7
SMILES: O=C(NCCF)NC1CCc2c(Br)cccc21 (stereo not shown)
